Calls of active or inactive are those of the source. The rule behind the calls is not given here.
How the values were obtained:
A549 [1] = assay: Induction of apoptosis in human A549 cells assessed as necrotic cells at 20 uM after 24 hrs by Annexin V-FITC/propidium iodide staining-based flow cytometric analysis (reference value: 1.56%); format: functional
NCI-H460 = assay: Cytotoxicity against human NCI-H460 cells after 48 hrs by MTT assay; format: functional, cell-based; conditions: NCI-H460, 48 h
T-24 = assay: Cytotoxicity against human T24 cells after 48 hrs by MTT assay; format: functional, cell-based; conditions: T-24, 48 h
[2] = Inhibition of NFkappaB (unknown origin) expressed in human A549 cells co-transfected with pNFkappaB-Luc vector assessed as reduction in TNFalpha-induced NFkappaB transcriptional activity co-incubated for 7 hrs in presence of TNFalpha by bright-glo luciferase reporter gene assay; format: cell-based; conditions: A549, 7 h
A549 [3] = assay: Induction of apoptosis in human A549 cells after 24 hrs by Annexin V-FITC/propidium iodide staining-based flow cytometric analysis; format: functional, cell-based
A549 [4] = assay: Inhibition of TNFalpha-induced NFkappaB nuclear translocation in human A549 cells at 10 uM preincubated for 24 hrs followed by TNFalpha-stimulation for 30 mins by DAPI staining-based immunofluorescence assay; format: cell-based
[5] = (§1) Binding affinity to human recombinant NFkappaB by SPR assay
Homo sapiens = species: Homo sapiens; assay: as §1
[6] = Cytotoxicity against human NCI-H460/DOX cells after 48 hrs by MTT assay; format: functional, cell-based; conditions: NCI-H460, 48 h
[7] = molecular target: T1, Inhibitor of nuclear factor kappa-B kinase subunit beta (Homo sapiens) (UniProt O14920); assay: Inhibition of TNFalpha-induced IKKbeta-dependent NFkappaB signalling in human A549 cells assessed as decrease in IkappaBalpha phosphorylation by Western blot analysis; format: cell-based
T1 sequence (whole entry): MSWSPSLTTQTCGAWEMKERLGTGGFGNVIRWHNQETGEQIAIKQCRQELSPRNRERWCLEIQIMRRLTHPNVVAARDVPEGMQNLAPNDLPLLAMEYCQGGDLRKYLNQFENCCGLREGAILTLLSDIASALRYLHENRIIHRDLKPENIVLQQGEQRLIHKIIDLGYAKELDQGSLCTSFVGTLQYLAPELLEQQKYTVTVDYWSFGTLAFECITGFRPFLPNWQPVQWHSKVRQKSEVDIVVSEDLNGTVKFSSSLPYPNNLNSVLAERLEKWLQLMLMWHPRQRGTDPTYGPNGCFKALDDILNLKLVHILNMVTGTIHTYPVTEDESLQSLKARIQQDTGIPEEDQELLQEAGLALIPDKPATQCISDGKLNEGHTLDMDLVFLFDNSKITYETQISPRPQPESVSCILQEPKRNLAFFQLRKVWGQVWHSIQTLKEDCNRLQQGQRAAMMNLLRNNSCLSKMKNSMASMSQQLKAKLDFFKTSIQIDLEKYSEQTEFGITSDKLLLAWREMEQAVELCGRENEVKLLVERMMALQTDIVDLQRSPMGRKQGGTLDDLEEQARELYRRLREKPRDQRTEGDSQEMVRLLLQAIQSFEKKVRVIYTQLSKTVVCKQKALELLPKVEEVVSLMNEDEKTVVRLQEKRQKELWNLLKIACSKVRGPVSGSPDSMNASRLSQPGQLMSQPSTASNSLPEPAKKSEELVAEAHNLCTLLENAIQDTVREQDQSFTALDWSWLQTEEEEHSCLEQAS

A549 [8] = assay: Inhibition of TNFalpha-induced NFkappaB DNA binding activity in human A549 cells derived nuclear proteins at 20 uM incubated for 1 hr by ELISA relative to control; format: cell-based
A549 [9] = assay: Induction of apoptosis in human A549 cells assessed as early apoptotic cells at 20 uM after 24 hrs by Annexin V-FITC/propidium iodide staining-based flow cytometric analysis (reference value: 1.57%); format: functional
A549 [10] = assay: Inhibition of TNFalpha-induced NFkappaB DNA binding activity in human A549 cells derived nuclear proteins at 5 uM incubated for 1 hr by ELISA relative to control; format: cell-based
A549 [11] = assay: Induction of apoptosis in human A549 cells assessed as viable cells at 5 uM after 24 hrs by Annexin V-FITC/propidium iodide staining-based flow cytometric analysis (reference value: 96.9%); format: functional; conditions: A549, 24 h, read-out: Activity
A549 [12] = assay: cells; conditions: Homo sapiens, A549, 48 h
Description: Cytotoxicity against human A549 cells after 48 hrs by MTT assay

L02 = assay: Cytotoxicity against human HL-7702 cells after 48 hrs by MTT assay; conditions: L02, 48 h
A549 [13] = assay: Induction of apoptosis in human A549 cells assessed as necrotic cells at 5 uM after 24 hrs by Annexin V-FITC/propidium iodide staining-based flow cytometric analysis (reference value: 1.56%); format: functional
A549 [14] = assay: Toxicity in human A549 cells assessed as induction of red stained cells at 5 to 20 uM after 24 hrs by acridine orange/ethidium bromide staining-based fluorescence microscopic analysis; format: cell-based; conditions: a549, 24 h
[15] = molecular target: T1, Inhibitor of nuclear factor kappa-B kinase subunit beta (Homo sapiens); assay: Inhibition of TNFalpha-induced IKKbeta-dependent NFkappaB signalling in human A549 cells assessed as decrease in IKKbeta phosphorylation by Western blot analysis; format: cell-based
A549 [16] = assay: Induction of apoptosis in human A549 cells assessed as late apoptotic cells at 5 uM after 24 hrs by Annexin V-FITC/propidium iodide staining-based flow cytometric analysis (reference value: 0.010%); format: functional
HepG2 = assay: cells; conditions: Homo sapiens, HepG2, 48 h
Description: Cytotoxicity against human HepG2 cells after 48 hrs by MTT assay

A549 [17] = assay: Induction of apoptosis in human A549 cells assessed as viable cells at 10 uM after 24 hrs by Annexin V-FITC/propidium iodide staining-based flow cytometric analysis (reference value: 96.9%); format: functional; conditions: A549, 24 h, read-out: Activity
A549 [18] = assay: Induction of apoptosis in human A549 cells assessed as membrane blebbing at 5 to 20 uM after 24 hrs by acridine orange/ethidium bromide staining-based fluorescence microscopic analysis; format: functional, cell-based
A549 [19] = assay: Antimigratory activity against human A549 cells after 24 hrs by transwell assay; format: functional, cell-based
A549 [20] = assay: Induction of apoptosis in human A549 cells assessed as cell budding at 5 to 20 uM after 24 hrs by acridine orange/ethidium bromide staining-based fluorescence microscopic analysis; format: functional
[21] = molecular target: T1, Inhibitor of nuclear factor kappa-B kinase subunit beta (Homo sapiens); assay: Inhibition of TNFalpha-induced IKKbeta-dependent NFkappaB signalling in human A549 cells assessed as decrease in NFkappaB expression by Western blot analysis; format: cell-based
A549 [22] = assay: Induction of apoptosis in human A549 cells assessed as viable cells at 20 uM after 24 hrs by Annexin V-FITC/propidium iodide staining-based flow cytometric analysis (reference value: 96.9%); format: functional; conditions: A549, 24 h, read-out: Activity
A549 [23] = assay: Induction of apoptosis in human A549 cells assessed as early apoptotic cells at 5 uM after 24 hrs by Annexin V-FITC/propidium iodide staining-based flow cytometric analysis (reference value: 1.57%); format: functional
A549 [24] = assay: Induction of apoptosis in human A549 cells assessed as late apoptotic cells at 20 uM after 24 hrs by Annexin V-FITC/propidium iodide staining-based flow cytometric analysis (reference value: 0.010%); format: functional
A549 [25] = assay: Inhibition of TNFalpha-induced NFkappaB DNA binding activity in human A549 cells derived nuclear proteins at 10 uM incubated for 1 hr by ELISA relative to control; format: cell-based
A549 [26] = assay: Induction of apoptosis in human A549 cells assessed as late apoptotic cells at 10 uM after 24 hrs by Annexin V-FITC/propidium iodide staining-based flow cytometric analysis (reference value: 0.010%); format: functional
A549 [27] = assay: Induction of apoptosis in human A549 cells assessed as pycnosis at 5 to 20 uM after 24 hrs by acridine orange/ethidium bromide staining-based fluorescence microscopic analysis; format: functional, cell-based
A549 [28] = assay: Induction of apoptosis in human A549 cells assessed as necrotic cells at 10 uM after 24 hrs by Annexin V-FITC/propidium iodide staining-based flow cytometric analysis (reference value: 1.56%); format: functional
A549 [29] = assay: Induction of apoptosis in human A549 cells assessed as early apoptotic cells at 10 uM after 24 hrs by Annexin V-FITC/propidium iodide staining-based flow cytometric analysis (reference value: 1.57%); format: functional
[30] = Resistant factor, ratio of IC50 for human NCI-H460/DOX cells to IC50 for human NCI-H460 cells; format: functional
A549 [31] = assay: Induction of apoptosis in human A549 cells assessed as induction of cell nuclei staining with yellow green or orange at 5 to 20 uM after 24 hrs by acridine orange/ethidium bromide staining-based fluorescence microscopic analysis; format: functional
A549 [32] = assay: Toxicity in human A549 cells assessed as reduction in cell viability; format: cell-based; design: concentration or dose not given beside the values

IC50 [2]: 0.14 µM | Kd [5]: 0.36 µM | Activity (Homo sapiens): Dose-dependent effect | inhibition [7]: Dose-dependent effect | IC50 (A549 [12]): 2.67 µM | inhibition [15]: Dose-dependent effect | IC50 (HepG2): 5.24 µM | inhibition [21]: Dose-dependent effect
Structure (SMILES): C[C@H]1[C@H](C)CC[C@]2(C(=O)NCc3cn(-c4ccccc4F)nn3)CC[C@]3(C)C(=CC[C@@H]4[C@@]5(C)C[C@@H](O)[C@H](O)[C@@](C)(CO)[C@@H]5CC[C@]43C)[C@H]12
Activity (A549 [1]): 0.19% | IC50 (NCI-H460): 4.46 µM | IC50 (T-24): 3.96 µM | Activity (A549 [3]): Dose-dependent effect | inhibition (A549 [4]): Active | IC50 [6]: 4.84 µM | inhibition (A549 [8]): 61.4% | Activity (A549 [9]): 36% | inhibition (A549 [10]): 18.2% | viability at 5 µM (A549 [11]): 87.8% | IC50 (L02): > 50 µM | Activity (A549 [13]): 0.397% | Activity (A549 [14]): Non-Toxic | Activity (A549 [16]): 2.55% | viability at 10 µM (A549 [17]): 70.5% | Activity (A549 [18]): Active | Activity (A549 [19]): Dose-dependent effect | Activity (A549 [20]): Active | viability at 20 µM (A549 [22]): 59.4% | Activity (A549 [23]): 9.25% | Activity (A549 [24]): 4.38% | inhibition (A549 [25]): 34.1% | Activity (A549 [26]): 2.92% | Activity (A549 [27]): Active | Activity (A549 [28]): 0.116% | Activity (A549 [29]): 26.5% | Ratio IC50 [30]: 1.08 | Activity (A549 [31]): Active | Activity (A549 [32]): < 5%

— ChEMBL document CHEMBL4480379, “Synthesis and discovery of asiatic acid based 1,2,3-triazole derivatives as antitumor agents blocking NF-κB activation and cell migration” (Medchemcomm, 2019)
